Here are results for ten molecules from PMC9785441, “A Broad Spectrum Antiparasitic Activity of Organotin (IV) Derivatives and Its Untargeted Proteomic Profiling Using Leishmania donovani” (Pathogens, 2022).

Assay [1] has as its system L. donovani intracellular amastigotes. Nature of the assay: L. donovani intracellular amastigote assay in B10R cells (high content imaging). The assay is classed as cell-based, Leishmania donovani. How it is done: For the intracellular amastigote stage assay, L. donovani was incubated at a density of 1 × 10^6 parasites/mL for six days at 29 °C before infection to enrich the proportion of metacyclic promastigotes. B10R monocyte cell lines were cultured in RPMI supplemented with 10% FBS and 1%penicillin/streptomycin at 37 °C in 5% CO2. After 72 h, cells were counted with a hemocytometer and mixed with the six-day-old parasites. Into 384-well assay plates, that had been pre-spotted with compounds diluted 1000-fold in DMSO, with final assay concentrations ranging from 20 µM to 0.02 µM and tested in biological triplicates., 500 B10R cells and 7000 parasites were dispensed per well in a final volume of 50 µL using a Multidrop Combi liquid dispenser (ThermoScientific, Waltham, MA, USA). Plates were incubated at 37 °C and 5% CO2 for 72 h. Cultures were then fixed with 4% formaldehyde solution for 30 min and stained with 0.5 µg/mL DAPI (diamidino-2-phenylindole). Plates were then imaged using an ImageXpress Micro XLS automated high content imager (Molecular Devices, San Jose, CA, USA) using a 10× air objective. A custom image analysis module generated in ImageXpress was used to count the nuclei of host and parasite cells. EC50 values were obtained using the GraphPad Prism 9 Software with biological triplicates.

The test system of assay [2] is L. donovani promastigotes. Kind of assay: L. donovani promastigote viability assay (resazurin). The assay is classed as cell-based, Leishmania donovani. Conditions: for pEC50: promastigotes, 48 h, read-out: EC50 L. donovani (pro). How it is done:
Promastigotes of L. donovani from late log phase culture were diluted to 2.0 × 10^6/mL in M-199 containing 10% FBS, 25 mM HEPES (Gibco 15630-080), 100 µM adenine, 12 mM NaHCO3, 10 µM folic acid, 1% penicillin/streptomycin (Gibco 15140-122) as described previously. Compounds and controls were transferred from compound plates to 384 well assay plates with the use of an acoustic transfer system (ATS, EDC Biosystems, Fremont, CA, USA). Promastigotes were incubated with compounds at 29 °C for 48 h. To measure parasite viability, resazurin sodium salt (7-hydroxy-3H-phenoxazin3-one 10-oxide) was dissolved in PBS and added to each well at a volume of 5 µL (final concentration of 44 µM). After incubating for 4 h at room temperature, fluorescence (ex 571 nm/em 584 nm) was recorded with an Envision (Perkin Elmer, Waltham, MA, USA) microplate fluorescence/luminescence reader. […] For positive and negative control amphotericin B and 0.5% DMSO was used, respectively. Dose response and EC50 analyses were obtained using GraphPad Prism 9 Software (Graph Pad Software Inc., San Diego, CA, USA).

Assay [3] has as its system T. cruzi (infecting C2C12). Nature of the assay: T. cruzi intracellular amastigote assay in C2C12 cells (high content imaging). Type of assay: cell-based, Trypanosoma cruzi. As to conditions: for pEC50: intracellular amastigotes, 72 h, read-out: EC50 T. cruzi (infecting C2C12). How it is done: Mouse C2C12 myoblasts (ATCC CRL-1772) were cultivated in RPMI 1640 medium supplemented with 5% FBS and kept at 37 °C and 5% CO2. T. cruzi CAI-72 trypomastigotes were obtained from the supernatant of C2C12 cells infected four to seven days previously. For the assay, 500 C2C12 cells were mixed with 7500 T. cruzi parasites and seeded into 384-well plates at a 50 µL final volume. Test compounds and reference drugs (Benznidazole and K11777) were pre-spotted into the 384 well black bottom plates prior to the addition of cells and parasites with final assay concentration of 20 µM to 0.02 µM. The plates were incubated at 37 °C^, 5% CO2 for 72 h. Cultures were then fixed with 4% formaldehyde and 0.5 µg/mL DAPI (diamidino-2-phenylindole) was added for staining nucleic acids. Plates were kept protected from light for 1 h and then imaged in an ImageXpress Micro XLS automated high content imager (Molecular Devices, San Jose, CA, USA). Imaging and data analysis were performed as described for L. donovani amastigotes on biological triplicates.

Assay [4] relates to E. histolytica HM1:IMSS trophozoites. Nature of the assay: E. histolytica trophozoite viability assay (CellTiter-Glo). The assay is classed as cell-based, Entamoeba histolytica. Conditions: 48 h. Here is the method: Trophozoites of E. histolytica HM1:IMSS were maintained in vitro as described in TYI-S-33 medium supplemented with penicillin (100 U/mL) and streptomycin (100 µg/mL). Test compounds were serially diluted and transferred to a white solid bottomed 96-well tissue culture plate (E&K Scientific, Swedesboro, NJ, USA) followed by addition of 5000 E. histolytica trophozoites per well for a final volume of 100 µL TYI-S-33 medium and a final concentration of compounds ranging from 50 to 0.39 µM. Metronidazole were used as positive control and assay plates were incubated for 48 h at 37 °C. The plates maintained kept anaerobically using the GasPak EZ Anaerobic Gas Generating Pouch System (VWR). Parasite viability was measured in triplicate using the CellTiter-Glo luminescence kit (Promega G9243) in an Envision plate reader (Perkin Elmer, Waltham, MA, USA). EC50 values were obtained using GraphPad Prism 9 Software.

The test system of assay [5] is S. mansoni, adult worm. Nature of the assay: S. mansoni adult worm ex vivo phenotypic screen (severity score). The assay is classed as cell-based, Schistosoma mansoni. As to conditions: for severity score, adult S. mansoni: maximum of 4; for S. mansoni, adult worm: least concentration at which a severity score of 4 was recorded: after 24 h, tested at 10, 5, 2.5 and 1.25 µM, EC50. The text has this:
The Naval Medical Research Institute (NMRI) isolate of S. mansoni was used. The parasite was cycled between Biomphalaria glabrata snails and male Golden Syrian hamsters (infected at 4–6 weeks of age) as intermediate and definitive hosts, respectively. Hamsters were infected and maintained in accordance with protocols approved by the Institutional Animal Care and Use Committee (IACUC) at the University of California San Diego. The acquisition, preparation and in vitro maintenance of S. mansoni have been described. Briefly, adult worms were harvested from hamsters 42 days post-infection in RPMI or DMEM, and washed five times prior to maintenance overnight at 37 °C and 5% CO2 in Basch medium containing 4% heat-inactivated FBS, 100 µg/mL streptomycin and 100 U/mL penicillin.
Ex vivo screens with adults employed 24-well flat-bottomed plates and approximately 5 males and 2–3 females/well. The complex and often dynamic phenotypic responses that the schistosome parasite is capable of were observed using a Zeiss Axiovert A1 inverted microscope at 24 h. Observations were classified using a constrained nomenclature that involves simple “descriptors” to convey changes in shape, motility and appearance, and the inability of the male worm to adhere to the bottom of the well, compared to DMSO controls. Each descriptor was given a value of 1 and these were added up to yield a “severity score” with a maximum of 4. Evidence of degeneracy or death was awarded a value of 4 as was damage to the tegument (parasite’s surface) on the understanding this would compromise survival in vivo. […] Data were averaged across two experiments for each compound concentration tested.

Setting [6] is: in B10R cells, 72 h, read-out: EC50 L. donovani ntracelular amastigotes.
Setting [7] is: at all concentrations (10, 5, 2.5 and 1.25 µM), 24 h.

pEC50, pIC50: −log10 of the molar value. Where two headings read alike, the source gives them in different places.

Broadly, the pEC50 is the negative decadic logarithm of the EC50, by convention in mol/L. The pIC50 is the negative decadic logarithm of the IC50, by convention in mol/L.

For `COc1ccc(NC(=O)CCC(=O)O)cc1` [MS26, 4-(4-methoxyphenylamino)-4 oxobutanoic acid], the negative logarithm of the EC50 (pEC50) in assay [1] (Leishmania donovani, range over L. donovani and T. cruzi intracellular stages and both parent compounds, read-out: EC50 values against the intracellular stages of both parasites) is 5.37 to 5.97; in assay [1] (setting [6]), 5.97; in assay [2] it was under 4.70; in assay [3] (Trypanosoma cruzi, C2C12, 72 h), 5.49; in assay [4] (Entamoeba histolytica), under 5.00. For the same molecule, in assay [5] (10 µM, 24 h), the “severity score, adult S. mansoni” value was “zero”. Also, in assay [5], the “S. mansoni, adult worm: least concentration at which a severity score of 4 was recorded” value (“S. mansoni, adult worm” for short) is listed as over 10.0 µM.

Turning to `CCC[CH2][Sn]([CH2]CCC)([O]C(=O)CCC(=O)Nc1ccc(OC)cc1)[O]C(=O)CCC(=O)Nc1ccc(OC)cc1` [MS26Bu2], the results for the negative-log EC50 (pEC50) in assay [1] (setting [6]), in assay [2] and in assay [3] were 6.55, 6.12 and 6.28, respectively. The “S. mansoni, adult worm” value in assay [5] was 1.25 µM. In assay [5] (setting [7]), the “severity score, adult S. mansoni” value turned out to be 4.

In the case of `CCC[CH2][Sn]([CH2]CCC)([CH2]CCC)[O]C(=O)CCC(=O)Nc1ccc(OC)cc1` [MS26Bu3], the negative logarithm of the EC50 (pEC50) was 6.68 in assay [1] (setting [6]), 6.66 in assay [2], 6.96 in assay [3] and 5.06 in assay [4]. In assay [5], the “S. mansoni, adult worm” value is 1.25 µM. In addition, in assay [5] (setting [7]), the “severity score, adult S. mansoni” value came out at 4.

Turning to `CCC[CH2][Sn]([Cl])([Cl])[O]C(=O)CCC(=O)Nc1ccc(OC)cc1` [MS26BuSnCl2], the negative logarithm of the EC50 (pEC50) in assay [1] (setting [6]), in assay [2] and in assay [3] was under 4.70 each time. In addition, in assay [5] (10 µM, 24 h), the “severity score, adult S. mansoni” value is reported as “zero”. In addition, the “S. mansoni, adult worm” value in assay [5] was over 10.0 µM.

In the case of `COc1ccc(NC(=O)CCC(=O)[O][Sn]([CH]2CCCCC2)([CH]2CCCCC2)[CH]2CCCCC2)cc1` [MS26Cy3], the pIC50 in assay [2] (Figure S1 dose response curves, RFU, read-out: IC50 against the promastigotes of L. donovani) was 6.22. Also, the pEC50 in assay [3] was 6.52. Besides, the “S. mansoni, adult worm” value in assay [5] is 1.25 µM. Moreover, the “severity score, adult S. mansoni” value in assay [5] (setting [7]) came to 4.

Consider `C[CH2][Sn]([CH2]C)([CH2]C)[O]C(=O)CCC(=O)Nc1ccc(OC)cc1` [MS26Et3], for which the “L. donovani intracellular parasites eliminated” value in assay [1] (5 µM) is reported as over 95%. The pEC50 is 6.72 in assay [1] (setting [6]), 6.68 in assay [2], 6.62 in assay [3] and 5.25 in assay [4]. Further, in assay [3] (5 µM), the “T. cruzi intracellular parasites eliminated” value is on record as over 95%. Besides, the “severity score, adult S. mansoni” value in assay [5] (setting [7]) is 4.

Turning to `COc1ccc(NC(=O)CCC(=O)[O][Sn]([CH3])([CH3])[CH3])cc1` [MS26Me3], the results for the pEC50 in assay [1] (setting [6]), in assay [2] and in assay [3] were 5.49, under 4.70 and under 4.70, respectively. For the same molecule, the “response of adult S. mansoni” value in assay [5] (5 µM, 24 h) is on record as “the same response as MS26Oct2 at 10 µM”. The “severity score, adult S. mansoni” value in assay [5] (10 µM, 24 h) was “lethal”. Moreover, in assay [5], the “S. mansoni, adult worm” value turned out to be 10 µM.

On to `COc1ccc(NC(=O)CCC(=O)[O-])cc1.[Na+]` [MS26Na, sodium 4-(4-methoxyphenylamino)-4 oxobutanoate], for which the pEC50 in assay [1] (setting [6]) is 5.41; in assay [2] it was 6.77; in assay [3] it was 5.37. The “severity score, adult S. mansoni” value in assay [5] (10 µM, 24 h) was “zero”. In addition, in assay [5], the “S. mansoni, adult worm” value was over 10.0 µM.

Take `COc1ccc(NC(=O)CCC(=O)[O][Sn]([c]2ccccc2)([c]2ccccc2)[c]2ccccc2)cc1` [MS26Ph3]: the pEC50 is 5.04 in assay [1] (setting [6]), 6.41 in assay [2] and under 4.70 in assay [3]. In addition, the “S. mansoni, adult worm” value in assay [5] was 1.25 µM. Also, the “severity score, adult S. mansoni” value in assay [5] (setting [7]) was found to be 4.

On to `C=[CH][Sn]([CH]=C)([O]C(=O)CCC(=O)Nc1ccc(OC)cc1)[O]C(=O)CCC(=O)Nc1ccc(OC)cc1` [MS26vin2], for which the pEC50 in assay [1] (setting [6]), in assay [2] and in assay [3] was under 4.70 throughout. For the same molecule, the “severity score, adult S. mansoni” value in assay [5] (10 µM, 24 h) is given as “zero”. Besides, the “S. mansoni, adult worm” value in assay [5] is on record as over 10.0 µM.
